Assay results as given in paper PMC12687421, “Characterisation of an allosteric site in PLCγ enzymes and implications for development of their specific inhibitors” (Biochemical Journal, 2025).
Each block holds one molecule with its values, some of them ahead of it.

How the values were obtained:
[1] = tested on: disease mouse model; design: method as in PMID 30429604, PMID 31548507; conditions: cited from earlier work
[2] = tested on: CD95–PLCγ1 interaction; design: method as in PMID 30429604, PMID 31548507; conditions: cited from earlier work
[3] = biological target: T1, PLCγ1^S345F (Homo sapiens, UniProt P19174, I813T/S345F); assay: Fluorescence polarisation competition with TNP-ATP; assay type: binding; conditions: fixed TNP-ATP
T1 construct: His-tag (N); Myc-tag (C); made in house; host or cells: Escherichia coli T7 Express lysY/Iq
T1 sequence (P19174 1-1291 isoform P19174-2 S345F/I813T): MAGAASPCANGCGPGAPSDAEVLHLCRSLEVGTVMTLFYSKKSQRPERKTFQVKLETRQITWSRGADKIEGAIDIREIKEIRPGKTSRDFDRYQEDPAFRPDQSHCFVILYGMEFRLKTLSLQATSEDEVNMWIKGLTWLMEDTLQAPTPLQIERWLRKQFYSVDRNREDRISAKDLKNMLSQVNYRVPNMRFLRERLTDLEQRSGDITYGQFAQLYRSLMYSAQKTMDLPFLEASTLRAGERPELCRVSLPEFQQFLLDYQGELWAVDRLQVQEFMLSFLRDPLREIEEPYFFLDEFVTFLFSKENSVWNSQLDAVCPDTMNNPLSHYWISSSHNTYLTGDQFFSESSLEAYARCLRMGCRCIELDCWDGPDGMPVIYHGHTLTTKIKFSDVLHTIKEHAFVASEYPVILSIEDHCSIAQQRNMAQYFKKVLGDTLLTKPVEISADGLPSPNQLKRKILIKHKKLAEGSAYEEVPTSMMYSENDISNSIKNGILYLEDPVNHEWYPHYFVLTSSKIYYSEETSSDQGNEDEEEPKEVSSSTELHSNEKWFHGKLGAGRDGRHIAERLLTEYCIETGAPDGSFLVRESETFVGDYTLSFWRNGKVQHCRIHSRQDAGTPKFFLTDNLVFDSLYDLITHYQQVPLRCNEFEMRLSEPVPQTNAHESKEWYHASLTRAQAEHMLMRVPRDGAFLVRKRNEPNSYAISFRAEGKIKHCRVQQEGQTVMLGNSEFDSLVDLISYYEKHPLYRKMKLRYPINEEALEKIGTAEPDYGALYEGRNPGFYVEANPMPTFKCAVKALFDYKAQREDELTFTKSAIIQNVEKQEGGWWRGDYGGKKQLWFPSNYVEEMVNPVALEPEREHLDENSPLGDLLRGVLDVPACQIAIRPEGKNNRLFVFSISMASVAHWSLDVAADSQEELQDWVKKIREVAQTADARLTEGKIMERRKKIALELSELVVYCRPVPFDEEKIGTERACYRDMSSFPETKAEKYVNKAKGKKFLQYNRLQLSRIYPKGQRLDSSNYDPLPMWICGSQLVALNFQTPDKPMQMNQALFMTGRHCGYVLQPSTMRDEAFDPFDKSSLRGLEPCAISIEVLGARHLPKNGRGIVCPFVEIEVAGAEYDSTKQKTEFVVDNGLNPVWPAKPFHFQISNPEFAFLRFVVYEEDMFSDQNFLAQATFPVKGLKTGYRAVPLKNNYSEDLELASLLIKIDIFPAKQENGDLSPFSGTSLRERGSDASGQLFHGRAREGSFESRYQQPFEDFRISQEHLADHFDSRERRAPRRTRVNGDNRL
Procedure: Experiments were performed in black small volume 384-well plates (Greiner) on a Pherastar FS microplate reader (BMG Labtech) utilising an FP module with Excitation 485 nm and Emission 520 nm. […] PLCγ1^S345F protein was titrated against the fixed concentration of TNP-ATP and the FP data fit in GraphPad Prism using the One site Total binding model. […] Equal amounts of DMSO only were added in a parallel FP experiment. Generated data was also fit in GraphPad Prism using the One site -Total binding model. Each experiment was performed in triplicate and the data presented as the mean and SD.

[4] = biological target: T2, PLCγ1^S345F (Homo sapiens, UniProt P19174, S345F); assay: IP-ONE assay in HEK stable cell line expressing PLCγ1^S345F; assay type: cell-based
T2 construct: Avi-tag (N); His-tag (N); expressed in transfected cells
T2 sequence (P19174 1-1290 S345F): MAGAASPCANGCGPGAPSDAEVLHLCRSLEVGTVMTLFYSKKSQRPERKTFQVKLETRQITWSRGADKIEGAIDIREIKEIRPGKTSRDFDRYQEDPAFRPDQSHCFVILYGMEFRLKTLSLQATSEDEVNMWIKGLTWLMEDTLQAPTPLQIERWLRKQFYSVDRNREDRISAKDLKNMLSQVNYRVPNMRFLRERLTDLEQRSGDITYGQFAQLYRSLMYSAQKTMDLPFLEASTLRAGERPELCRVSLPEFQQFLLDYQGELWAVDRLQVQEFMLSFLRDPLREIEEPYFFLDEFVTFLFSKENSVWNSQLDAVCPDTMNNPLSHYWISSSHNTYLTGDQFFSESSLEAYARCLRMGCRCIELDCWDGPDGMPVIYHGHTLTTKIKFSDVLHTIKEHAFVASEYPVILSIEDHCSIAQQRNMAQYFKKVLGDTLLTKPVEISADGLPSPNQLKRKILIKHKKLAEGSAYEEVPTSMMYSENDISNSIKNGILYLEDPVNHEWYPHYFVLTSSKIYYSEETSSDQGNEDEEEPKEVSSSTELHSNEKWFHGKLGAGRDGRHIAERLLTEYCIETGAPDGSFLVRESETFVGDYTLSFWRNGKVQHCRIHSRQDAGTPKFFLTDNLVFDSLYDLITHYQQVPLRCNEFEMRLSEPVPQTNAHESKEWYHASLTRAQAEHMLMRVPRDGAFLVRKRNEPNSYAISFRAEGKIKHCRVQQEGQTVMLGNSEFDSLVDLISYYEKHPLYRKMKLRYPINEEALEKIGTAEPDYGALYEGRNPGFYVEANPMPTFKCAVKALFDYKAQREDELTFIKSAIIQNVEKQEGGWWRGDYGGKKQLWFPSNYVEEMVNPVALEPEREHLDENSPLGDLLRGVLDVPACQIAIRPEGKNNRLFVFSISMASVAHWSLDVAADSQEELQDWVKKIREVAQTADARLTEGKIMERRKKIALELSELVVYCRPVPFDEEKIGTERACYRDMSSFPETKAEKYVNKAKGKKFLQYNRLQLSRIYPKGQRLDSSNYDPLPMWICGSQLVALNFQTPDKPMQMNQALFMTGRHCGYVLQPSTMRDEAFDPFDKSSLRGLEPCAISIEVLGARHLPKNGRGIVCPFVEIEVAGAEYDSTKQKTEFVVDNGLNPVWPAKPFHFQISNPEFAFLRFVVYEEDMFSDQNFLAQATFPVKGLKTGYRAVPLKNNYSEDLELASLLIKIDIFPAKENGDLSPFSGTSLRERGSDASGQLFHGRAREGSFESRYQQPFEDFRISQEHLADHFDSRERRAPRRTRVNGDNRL
Source text: (§1) For generating HEK cell lines that stably express PLC variants, an in-house Gateway compatible, Lenti viral vector was generated using In-Fusion cloning (Takara Bio) following manufacturer’s protocols. The vector backbone consisted of pLenti PGK Puro DEST (Addgene 19068). A KOZAK sequence, Avi-tag and His-tag (KAH cassette) was inserted between the PGK promoter and the attR1 vector regions. An IRES2 EmGFP cassette was inserted between the attR2 and WPRE regions. Both cassettes were PCR amplified from vector pHR-CMV-TetO2_3C-Avi-His6_IRES-EmGFP (Addgene 113888). Finally, a BirA ORF was cloned in-frame upstream of the EmGFP, which would express as a BirA-EmGFP fusion protein. The resulting Gateway compatible destination vector was used in the LR reaction (Thermo Fisher) with pENTR207 clones containing the PLCγ1^S345F or an activated version of PLCδ1, where the amino acids 445–487 had been deleted (PLCδ1Δ^44), to generate their respective expression clones ready for preparing stable cell lines in HEK.
(§2) Stable cell lines overexpressing PLCγ1^S345F or PLCδ1^Δ44 were prepared as described in [28]. […] Fluorescence-activated cell sorting (FACS) was used to select the top 10% of GFP-expressing cells. […]
(§3) PLC activity in cell lines was measured using the IP-ONE assay according to the manufacturer’s instructions as described in [28]. […]

[5] = biological target: T3, PLCδ1^Δ44 (Homo sapiens, UniProt P51178, DEL445-487); assay: IP-ONE assay in HEK stable cell line expressing PLCδ1^Δ44; assay type: cell-based
T3 construct: Avi-tag (N); His-tag (N); expressed in transfected cells
T3 sequence (P51178 with tags, fused parts or gaps DEL445-487): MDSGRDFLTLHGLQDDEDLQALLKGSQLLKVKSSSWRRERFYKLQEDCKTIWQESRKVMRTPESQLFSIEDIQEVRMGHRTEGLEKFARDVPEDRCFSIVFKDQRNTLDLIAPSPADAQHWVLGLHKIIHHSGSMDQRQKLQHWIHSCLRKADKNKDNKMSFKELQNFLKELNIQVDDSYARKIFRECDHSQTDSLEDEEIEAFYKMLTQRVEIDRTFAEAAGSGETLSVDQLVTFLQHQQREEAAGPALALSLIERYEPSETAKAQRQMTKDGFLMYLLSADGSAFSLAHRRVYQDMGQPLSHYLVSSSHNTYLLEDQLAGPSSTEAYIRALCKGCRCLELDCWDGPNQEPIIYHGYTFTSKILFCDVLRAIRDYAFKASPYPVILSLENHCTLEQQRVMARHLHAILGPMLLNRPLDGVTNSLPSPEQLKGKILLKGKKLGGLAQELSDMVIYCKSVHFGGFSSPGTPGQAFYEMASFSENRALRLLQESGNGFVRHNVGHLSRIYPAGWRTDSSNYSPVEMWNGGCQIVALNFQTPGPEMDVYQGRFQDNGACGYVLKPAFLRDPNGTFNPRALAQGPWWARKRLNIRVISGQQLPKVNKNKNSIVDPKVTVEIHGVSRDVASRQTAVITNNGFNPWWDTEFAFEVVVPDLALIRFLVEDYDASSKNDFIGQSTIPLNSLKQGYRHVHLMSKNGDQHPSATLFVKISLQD
Source text: as §1, §2, §3

Structure (SMILES): CC(C)c1nc(CN(C)C(=O)N[C@H](C(=O)N[C@@H](Cc2ccccc2)C[C@H](O)[C@H](Cc2ccccc2)NC(=O)OCc2cncs2)C(C)C)cs1 [ritonavir]
- clinical symptoms in a disease mouse model [1]: alleviating clinical symptoms
- CD95–PLCγ1 interaction [2]: disrupt

- competition with binding of fluorescently labelled ATP analogue (TNP-ATP) [3]: competed
Structure (SMILES): O=P(O)(O)CP(=O)(O)OC[C@H]1O[C@@H](n2cnc3c(NCc4ccccc4)ncnc32)[C@H](O)[C@@H]1O [PSB 12379]

- inhibition of PLC activity of PLCγ1^S345F in cell-based assay [4]: potently inhibited
- IC50 ([4]; PLCγ1 S345F, read-out: IC50, PLC activity (IP1) in stable cell line): 1600 nM
- effect on PLC activity of PLCδ1 in stable cell line [5]: no effect
- IC50, PLC activity (IP1) in stable cell line ([5]; PLCδ1 Δ44): no inhibition
Structure (SMILES): CC(=O)OC[C@H]1O[C@@H](n2ncc(=O)[nH]c2=O)[C@H](OC(C)=O)[C@@H]1OC(C)=O [Azaribine]
